From the METLIN SMRT retention time set (Domingo-Almenara et al. 2019) come the findings set out here.

Each structure is given as a SMILES string.

This data set can be described thus: gradient 5% acetonitrile 3 min, to 50% in 2 min, to 85% in 15 min, held 3 min, 100 µL/min. To be noted: column: Zorbax Extend-C18 2.1 x 50 mm; eluents: water / acetonitrile, 0.1% formic acid. In short, it runs like this: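 Over 3 months, pure standards in mixtures of ~100 molecules were run by HPLC coupled to a quadrupole time-of-flight mass spectrometer in positive and negative ionization mode. The column was a Zorbax Extend-C18 (2.1 × 50 mm, 1.8 μm) at 100 μL/min, eluted with water and acetonitrile each holding 0.1% formic acid, with 40 μL dead and 900 μL dwell volumes. Retention time was determined from adduct peaks chosen by software and checked manually.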
For `CCOC(=O)c1cccc(NC(=O)c2cnc(-c3ccccc3)nc2-c2ccncc2)c1`, the RP-LC retention time came out at 924 s. For the molecule `N#Cc1c(NC(=O)CSc2nnc3ccccn23)sc2c1CCC2`, the RP-LC retention time is 704 s. The value for `CN(C)C(=O)c1cccc(C(=O)N(C)C)n1` was 541 s; that for `COc1ccc(-c2nnc(N3CCC(C(=O)NC4CCCCCC4)CC3)o2)cc1` was 881 s. The value for `Cc1cc(C(=O)Nc2cccc(Cl)c2)nc2cc(-c3ccco3)nn12` was 1020 s; that for `CC(=O)c1ccc(NC(=O)CN2C(=O)CC(c3ccccc3)=Nc3cccnc32)cc1` was 780 s. The value for `COc1cccc(-n2c(N3CCCC(C(=O)NCCc4cccs4)C3)nc3ccsc3c2=O)c1` (stereo not drawn) was 879 s; that for `O=C(NCCc1csc(-c2ccccc2)n1)[C@H]1CCCN1C(=O)c1ccco1` was 747 s.

The molecule `COc1cc(-c2nnc(SCC(=O)N3CCCCC3C)o2)cc(OC)c1OC` (stereo not drawn) returned an RP-LC retention time of 867 s. The molecule `c1ccc(-c2nnc(Cc3ccc4c(c3)OCO4)o2)cc1` came in with an RP-LC retention time of 894 s.

`CCn1c(=O)c(N2CCC(C(=O)NCCc3c[nH]c4ccc(OC)cc34)CC2)nc2cccnc21` had an RP-LC retention time of 864 s. The result for `CC(C)N1C(=O)c2cccnc2Sc2cc(NC(=O)c3cccs3)ccc21` reads 837 s. The result for `CN(C)[C@@H]1CN(C(=O)CCc2c[nH]c3ccccc23)C[C@H]1CO` reads 573 s; that for `CCc1nn(C)c(=O)c2cc(S(=O)(=O)NCc3ccc(F)c(Cl)c3)cn12`, 933 s. With `Cc1cc(-c2nnc(-c3ccc(F)cc3)o2)c(C)n1CC(=O)N(C)Cc1ccccc1`, the RP-LC retention time is 1000 s.

The molecule `Cc1noc(-c2ccnc(-n3ncc(C(=O)N4CCOCC4)c3C)c2)n1` showed an RP-LC retention time of 693 s. The molecule `Cn1cnnc1SCCNC(=O)c1cc(-c2ccc(F)cc2)c[nH]1` showed an RP-LC retention time of 659 s. The result for `CC(C)CCn1c(SCc2cc(=O)n3ccccc3n2)nc2c(-c3ccccc3)cn(C)c2c1=O` reads 1200 s. For the molecule `Cc1ccc(C2Cn3cnc(C(=O)N4CCC(C(=O)NCc5cc(F)ccc5F)CC4)c3CO2)cc1` (stereo not drawn), the RP-LC retention time amounted to 808 s. The value for `COc1cccc(CN2CC=C(C(=O)N3CCN(c4ccccc4)CC3)CC2)c1` was 664 s; that for `CCc1ccccc1S(=O)(=O)N1CCN(c2nc3ccncc3n(C(C)C)c2=O)CC1` was 632 s. Regarding `O=C(N[C@H]1C[C@@H]2C[C@H]1CN2S(=O)(=O)c1ccc2c(c1)OCCO2)c1ccccc1`, the RP-LC retention time was found to be 803 s. `CC(C)(C)n1nnnc1C1CC2(CCOCC2)C(=O)N1Cc1cccc(F)c1` (stereo not drawn) came in with an RP-LC retention time of 784 s. The result for `COc1c(C=O)c2c(c(OC)c1OC)-c1ccc(OC)c(=O)cc1[C@@H](NC(C)=O)CC2` reads 725 s.

For `COCCOC(=O)C1=C(C)NC(C)=C(C(=O)OC/C=C/c2ccccc2)C1c1cccc([N+](=O)[O-])c1` (stereo not drawn), the RP-LC retention time came to 1210 s. The value for `Cc1ccc(NS(=O)(=O)c2cc(-c3[nH]ncc3C(=O)N3CCCCC3)oc2C)c(C)c1` was 791 s. The result for `COc1ccc(-c2noc(C3CC(=O)N(c4cc(C)cc(C)c4)C3)n2)cc1OC` (stereo not drawn) reads 922 s; that for `CSc1ccc(-c2noc(Cn3c(=O)n(-c4ccccc4)c(=O)c4sccc43)n2)cc1`, 1020 s. The value for `CC(C)Cc1csc(-c2csc(S(=O)(=O)NC3CCCCC3)c2)n1` was 1320 s; that for `CC1=C(c2ccc(C)cc2)S(=O)(=O)N=C1N1CCCN(C(=O)CC(C)C)CC1` was 855 s; that for `CC(C)Cn1cc(S(=O)(=O)N2CCN(c3ccccc3F)CC2)c2cccnc21` was 1140 s. In turn, `Cc1cc(OCC(=O)Nc2ccc(C(C)C)cc2)nc(N2CCN(c3ccccc3)CC2)n1` displayed an RP-LC retention time of 981 s.

For the molecule `Fc1ccc(OCc2nc(-c3ccc4c(c3)ncn4CCN3CCCCC3)no2)cc1`, the RP-LC retention time amounted to 654 s.

Turning to `COc1ncccc1CNC(=O)Cc1ccsc1`, the RP-LC retention time was 610 s. The value for `O=S(=O)(c1ccccc1Cl)N1CCC(c2noc(COCC3CC3)n2)CC1` was 950 s; that for `O=C(Nc1ccc2c(c1)OCCO2)c1ccc(-c2ccnc(N3CCCC3)n2)cc1` was 768 s; that for `O=C(Cc1csc(-c2c(Cl)cccc2Cl)n1)NCCc1c[nH]c2ccccc12` was 925 s. `CCC(COC(=O)c1cc(OC)c(OC)c(OC)c1)(c1ccccc1)N(C)C` (stereo not drawn): the RP-LC retention time was 752 s. The result for `Cc1nc(CCNS(=O)(=O)c2cccnc2)no1` reads 603 s; that for `O=C(NCC1CCCO1)C1CCN(C(=O)c2ncn3c2COC(c2ccc(F)cc2)C3)CC1` (stereo not drawn), 658 s. The value for `COc1ccccc1NC(=O)Cn1nc2cc(C)nc(-c3cccc(F)c3)n2c1=O` was 826 s. The result for `CCCCN1CCN(C(=O)c2ccc3c(c2)nc2n3CCN(C3CCCCC3)C2=O)CC1` reads 618 s; that for `CCn1c(=O)c2c(cc(C)n2C)n(CC(=O)Nc2c(C)cccc2C)c1=O`, 756 s; that for `CCc1cccc(NS(=O)(=O)c2cc(-c3[nH]ncc3C(=O)N(C)C)oc2C)c1`, 718 s. Molecule `CSc1cccc(NC(=O)CN2CCC3(CC2)N=C(c2ccc(Cl)cc2)C(=O)N3)c1` gave an RP-LC retention time of 627 s. In turn, `CCn1c(=O)c2ccccc2n(Cc2nc(-c3ccc(Cl)cc3)no2)c1=O` gave an RP-LC retention time of 1090 s. The value for `CNc1nc(Nc2ccccc2)nc2ccccc12` was 633 s; that for `CCn1c(=O)c(N2CCN(C(=O)Nc3cccc(Br)c3)CC2)nc2cccnc21` was 1030 s; that for `Cc1ccc(CC(=O)NC(C)C(=O)Nc2nc3ccccc3[nH]2)cc1` (stereo not drawn) was 665 s. The result for `O=C1CC(NC(=O)COc2ccc(F)cc2)CN1` (stereo not drawn) reads 586 s; that for `O=C(c1cnc2ccccc2n1)N1CCN(Cc2ccsc2)CC1`, 556 s; that for `CSc1ccc(-c2nc3ccc(Cl)cn3c2Nc2ccc3c(c2)OCCO3)cc1`, 819 s. Turning to `COc1cc(-c2noc(CCn3nc(-c4ccc(F)cc4)ccc3=O)n2)cc(OC)c1OC`, the RP-LC retention time was determined as 887 s. The result for `CCCN1CCN(C(=O)C2=NN(c3ccc(C)cc3)c3ncccc3S2(=O)=O)CC1` reads 643 s; that for `Cc1cc2c(cc1S(=O)(=O)N1CCCC1C(=O)Nc1ccc(F)cc1)OCC(=O)N2` (stereo not drawn), 743 s.

For `CCN(Cc1ccccc1)C(=O)c1cn2cc(Cl)ccc2n1`, the RP-LC retention time stood at 860 s.

In turn, `CCOCCOC(=O)c1ccc(NC(=O)C(C)(C)C)cc1` returned an RP-LC retention time of 815 s. `Cn1c(=O)c(N2CCN(C(=O)c3ccc(F)cc3Cl)CC2)nc2ccncc21` had an RP-LC retention time of 616 s.
